Data as given in article PMC8958510 (Journal of Medicinal Chemistry, 2022).
Values after ≈ are worked out from the molar mass of the structure shown. Read-outs that look alike come from different tables or passages of the source.

Columns and labels:
[1] = PAMPA-BBB assay for brain permeability; settings: for Papp: pig, PAMPA; for BBB permeation class: PAMPA-BBB prediction
Description: PAMPA-BBB assay for brain permeability. The brain permeability (Pe) of the target
compounds was assessed by an in vitro parallel artificial membrane permeability assay for
blood‒brain barrier penetration (PAMPA-BBB assay),12 which uses a lipid extract of porcine
brain membrane as a BBB model. The assay was validated by comparing experimental and
reported Pe values of a set of fourteen commercial drugs (Table S2 of the Supporting
On the basis of this equation and the limits established by Di et al. for BBB
independent experiments, each performed in triplicate, were carried out for each compound.

[2] = biological target: PAS of Electrophorus electricus AChE (EeAChE) (Electrophorus electricus, UniProt O42275); settings: read-out: KD of propidium for PAS; value assumed for the calculation; ref 11 (Supporting Information); cited from earlier work
[3] = Microsomal stability, mouse liver microsomes; type: in vitro ADME; settings: mouse, liver microsomes (pooled), pH 7.4; for microsomal CLint at 1 h, 0.05 µM / half-life at 1 h, 0.05 µM: 37 °C; for half-life at 1 h, 0.05 µM: read-out: t1/2, mouse microsomes; for remaining at 1 h, 0.05 µM: after 1 h of incubation at 37 °C, read-out: % remaining compound, mouse microsomes
Description: (§1) Microsomal stability screen. The microsomal stability of the target compounds was
(§2) determined at the Innopharma Drug Screening and Pharmacogenomics Platform (Santiago de
(§3) Compostela, Spain). The human, rat and mice pooled microsomes, with a protein content of 20 mg mL‒1, were purchased from Tebu-Xenotech. The compounds were incubated in a 96-well microplate at 37 °C with the microsomes in 50 mM phosphate buffer (pH = 7.4) containing as cofactors 30 mM MgCl2, 10 mM NADP, 100 mM glucose-6-phosphate and 40
(§4) Samples (75 µL) were taken from each well at 0, 10, 20, 40 and 60 min and transferred to a microplate. 4 °C Acetonitrile (75 µL) and internal standard (rolipram) were then added for inactivating the microsomes, and water with 0.5% formic acid (30 µL) was subsequently added for improving the chromatographic conditions, keeping the mixtures at 4 °C. The plate was centrifuged at 46,000 g for 30 min at 15 °C and supernatants were taken and analyzed in a UPLC-MS/MS system (UPLC QSM Waters Acquity) using reverse phase Acquity UPLC® HSST3 1.7 μm (2.1 mm × 50 mm, Waters) as the stationary phase, 0.1% formic acid in water (A) / 0.1% formic acid in acetonitrile (B) as the mobile phase, a flow of 0.8 mL min‒1, and the
(§5) The metabolic stability of the compounds was calculated from the logarithm of the remaining compound at each of the time points studied.

[4] = Kinetic aqueous solubility screen (light scattering); settings: 1% DMSO / 99% PBS
Description: Aqueous solubility screen. The kinetic aqueous solubility of the target compounds was
as §2
Compostela, Spain). Ten mM stock solutions of the tested compounds were serially diluted,
NEPHELOstar Plus reader (BMG LABTECH). The results were adjusted to a segmented
linear regression to obtain the maximum concentration in which the compounds were soluble.

[5] = biological target: T1, recombinant human AChE (Homo sapiens, UniProt P22303); type: biochemical; settings: for IC50: recombinant human AChE, mean ± SEM, read-out: hAChE IC50
T1 construct: purchased Sigma-Aldrich, Milan, Italy
Description: (§6) Human and mouse acetylcholinesterase and human butyrylcholinesterase inhibition
(§7) assay. The inhibitory activity of the target compounds toward recombinant human AChE
(§8) (Sigma-Aldrich, Milan, Italy), recombinant mouse AChE (Bio-Techne, Milan, Italy) and
(§9) human serum BChE (Sigma-Aldrich, Milan, Italy) was assessed by Ellman’s method,8 using
(§10) Stock solutions of the AChEs were prepared by
(§11) dissolving enzyme lyophilized powder (hAChE) or diluting the enzyme commercial solution
(§12) (mAChE) in 0.1 M potassium phosphate (pH 8.0) containing 0.1% Triton X-100, whereas the
(§13) stock solution of hBChE was prepared in 0.1% aq. gelatin and the stock solutions of the
(§14) compounds to be tested were made in MeOH (2-4 mM). The assay solution consisted of 0.02
(§15) unit mL‒1 of the enzyme, 340 M 5,5’-dithiobis(2-nitrobenzoic acid), and 550 M of the
(§16) substrate acetylthiocholine iodide (for AChE assay) or butyrylthiocholine iodide (for BChE
(§17) assay) in 0.1 M potassium phosphate (pH 8.0). Blank solutions containing all components
(§18) except the enzymes were prepared to account for the non-enzymatic hydrolysis of the
(§19) Prior the addition of the substrate, the assay solutions were incubated at 37 °C for 20 min.
(§20) After the addition of the substrate, cuvettes were rapidly transferred into a Jasco V-530
(§21) double beam spectrophotometer equipped with thermostated cuvette holders (37 °C), in order
(§22) for 240 s. For each tested compound, five increasing concentrations were assayed in order to
(§23) achieve inhibition percentages of 20‒80%. Each concentration was assayed in triplicate. IC50
(§24) values were calculated from the inhibition plot (% inhibition vs log[inhibitor]) and are
(§25) expressed as mean ± SEM. Each IC50 value is the average of at least two experiments, each

[6] = biological target: T2, recombinant mouse AChE (Mus musculus, UniProt P21836); experiment: Mouse acetylcholinesterase inhibition, Ellman's method; type: biochemical; settings: recombinant mouse AChE; mean ± SEM; read-out: mAChE IC50
T2 construct: purchased Bio-Techne, Milan, Italy
T2 sequence (P21836 32-614): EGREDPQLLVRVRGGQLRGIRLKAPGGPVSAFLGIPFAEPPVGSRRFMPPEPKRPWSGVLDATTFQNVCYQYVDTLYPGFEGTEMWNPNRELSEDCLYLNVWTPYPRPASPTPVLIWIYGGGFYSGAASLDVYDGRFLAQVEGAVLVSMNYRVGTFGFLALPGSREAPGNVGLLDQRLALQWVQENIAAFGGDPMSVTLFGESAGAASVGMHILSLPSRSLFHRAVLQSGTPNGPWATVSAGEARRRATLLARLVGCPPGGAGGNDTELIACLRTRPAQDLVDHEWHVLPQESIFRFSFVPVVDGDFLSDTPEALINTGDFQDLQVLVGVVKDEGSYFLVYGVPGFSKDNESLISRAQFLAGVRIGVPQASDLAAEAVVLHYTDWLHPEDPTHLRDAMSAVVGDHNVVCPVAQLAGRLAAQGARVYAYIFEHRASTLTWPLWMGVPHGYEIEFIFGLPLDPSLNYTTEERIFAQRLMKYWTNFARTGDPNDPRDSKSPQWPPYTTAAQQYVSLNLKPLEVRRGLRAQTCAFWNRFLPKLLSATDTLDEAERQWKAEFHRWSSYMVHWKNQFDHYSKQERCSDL
Description: as §6, §7, §8, §9, §10, §11, §12, §13, §14, §15, §16, §17, §18, §19, §20, §21, §22, §23, §24, §25

[7] = biological target: T3, human serum BChE (Homo sapiens, UniProt P06276); type: biochemical; settings: read-out: hBChE IC50
T3 construct: human serum BChE (Sigma-Aldrich, Milan, Italy) was assessed by Ellman’s method; purchased Sigma-Aldrich, Milan, Italy; host or cells: human serum
Description: as §6, §7, §8, §9, §10, §11, §12, §13, §14, §15, §16, §17, §18, §19, §20, §21, §22, §23, §24, §25

[8] = biological target: T4, recombinant human sEH (Homo sapiens, UniProt P34913); experiment: Human soluble epoxide hydrolase inhibition, fluorescence-based assay (CMNPC substrate); type: biochemical; settings: for IC50: recombinant human sEH, average of three replicates, read-out: hsEH IC50; for higher hsEH potency relative to TPPU: ratio of IC50s vs TPPU
T4 sequence (P34913 1-555): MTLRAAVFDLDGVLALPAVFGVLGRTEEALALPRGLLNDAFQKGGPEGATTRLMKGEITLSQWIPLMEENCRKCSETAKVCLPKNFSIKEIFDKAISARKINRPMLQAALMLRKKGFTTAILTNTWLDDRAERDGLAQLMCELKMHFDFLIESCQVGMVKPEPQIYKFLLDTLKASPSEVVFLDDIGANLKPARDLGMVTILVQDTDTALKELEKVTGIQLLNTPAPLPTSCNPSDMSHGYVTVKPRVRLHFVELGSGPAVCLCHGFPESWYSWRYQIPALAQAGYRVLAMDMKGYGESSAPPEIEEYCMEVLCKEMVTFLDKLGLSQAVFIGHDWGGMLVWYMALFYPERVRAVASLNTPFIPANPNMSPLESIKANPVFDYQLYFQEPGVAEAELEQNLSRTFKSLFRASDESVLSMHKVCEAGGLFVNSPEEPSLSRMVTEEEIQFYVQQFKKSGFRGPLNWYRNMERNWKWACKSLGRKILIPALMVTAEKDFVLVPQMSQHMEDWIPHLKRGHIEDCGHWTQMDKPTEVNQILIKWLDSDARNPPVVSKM
Description: (§26) Human and mouse soluble epoxide hydrolase inhibition assay. The inhibitory activity of
(§27) the target compounds toward human and mouse sEH was determined by a fluorescence-based
(§28) assay, using purified recombinant human or mouse sEH proteins and CMNPC as a fluorescent
(§29) substrate.6 The enzymes were incubated at 30 °C with the inhibitors ([I]final = 0.4-100,000
(§30) nM) for 5 min in 100 mM sodium phosphate buffer (200 µL, pH 7.4) containing 0.1 mg mL‒1
(§31) of BSA and 1% of DMSO. The substrate (CMNPC) was then added ([S]final = 5 µM). Activity
(§32) was assessed by measuring the appearance of the fluorescent 6-methoxynaphthaldehyde
(§33) (Molecular Devices). Results were obtained by regression analysis from a linear region of the
(§34) curve and are given as IC50 values, i.e., the concentration of the compound that reduces the
(§35) sEH activity by 50%. All measurements were performed in triplicate and the mean is

[9] = Microsomal stability, rat liver microsomes; type: in vitro ADME; settings: rat, liver microsomes (pooled), pH 7.4; for remaining at 1 h, 0.05 µM: after 1 h of incubation at 37 °C, read-out: % remaining compound, rat microsomes
Description: as §1, §2, §3, §4, §5

[10] = Microsomal stability, human liver microsomes; type: in vitro ADME; settings: human, liver microsomes (pooled), pH 7.4; for remaining at 1 h: after 1 h of incubation at 37 °C, read-out: % remaining compound, human microsomes
Description: as §1, §2, §3, §4, §5

[11] = test system: SH-SY5Y cells; experiment: Cytotoxicity in SH-SY5Y cells, propidium iodide stain; type: cell-based, human; settings: for toxicity to SH-SY5Y cells LD50: propidium iodide staining after 24 h of incubation, mean ± SD; for LD50 (SH-SY5Y): supplementary CSV
Description: Cytotoxicity in SH-SY5Y cells. The cytotoxicity of the target compounds was evaluated in
Minimum Essential Medium / Ham’s-F12 (1:1, v/v) medium (Biowest), supplemented with
non-essential amino acids, 10% fetal bovine serum, 1 mM glutamine and 50 µg mL‒1
gentamycin (all reagents from Gibco, Thermo Fisher Scientific). For the experiments, cells
were seeded at 3 × 10^5 cells mL‒1 (100 µL per well) in 96-well plates (Nunc). After 24 h, the
test compounds were added concentrated from stock solutions in DMSO and culture medium
to triplicate wells to obtain the final different concentrations up to 100 µM in 0.1% DMSO.
Compounds were incubated for further 24 h. At termination, cytotoxicity was analyzed by the
propidium iodide (PI) fluorescence stain assay. All compounds were tested in three
independent experiments using different cell passages. The PI assay measures cell death. PI
enters into the cells with damaged membranes and greatly increases the fluorescence upon
binding to DNA. PI reagent (Molecular Probes) at the final concentration of 7.5 µg mL‒1 was
added to the cells and incubated for 1 h. The resulting fluorescence was measured by a Flx-
death induced by the compounds was calculated from to the fluorescence of treated cells (Ft)
relative to that of control cells (Fmin) and cells incubated with Triton X100 (Fmax) as the 0%
and 100% cell death, respectively [% = ((Ft-Fmin)/(Fmax-Fmin)) × 100]. All compounds
were tested in three independent experiments using different cell passages. LC50 values were
calculated for each experiment and the results are expressed as mean ± SD.

[12] = biological target: T5, recombinant mouse sEH (Mus musculus, UniProt P34914); settings: read-out: msEH IC50, average of three replicates
T5 sequence (P34914 1-554): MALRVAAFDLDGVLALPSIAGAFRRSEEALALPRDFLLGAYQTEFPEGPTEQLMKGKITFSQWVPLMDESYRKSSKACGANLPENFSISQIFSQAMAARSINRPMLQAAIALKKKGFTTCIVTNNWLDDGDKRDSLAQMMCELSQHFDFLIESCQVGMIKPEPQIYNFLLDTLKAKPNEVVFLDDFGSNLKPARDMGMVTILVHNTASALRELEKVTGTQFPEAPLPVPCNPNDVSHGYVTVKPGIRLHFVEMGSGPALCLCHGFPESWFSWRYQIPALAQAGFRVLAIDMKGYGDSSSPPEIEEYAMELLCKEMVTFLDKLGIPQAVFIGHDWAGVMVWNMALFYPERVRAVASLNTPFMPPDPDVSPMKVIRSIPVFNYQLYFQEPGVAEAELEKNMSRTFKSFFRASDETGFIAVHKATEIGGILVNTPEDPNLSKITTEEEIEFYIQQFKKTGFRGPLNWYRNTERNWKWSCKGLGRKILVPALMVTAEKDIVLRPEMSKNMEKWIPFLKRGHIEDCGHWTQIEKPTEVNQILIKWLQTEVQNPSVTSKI
Description: as §26, §27, §28, §29, §30, §31, §32, §33, §34, §35

[13] = human serum BChE, mean ± SEM, n.a. = not active, % inhibition <10% at 100 μM
[14] = 37 °C, read-out: t1/2, rat microsomes
[15] = 37 °C, read-out: t1/2, human microsomes

T3 sequence (P06276 29-602): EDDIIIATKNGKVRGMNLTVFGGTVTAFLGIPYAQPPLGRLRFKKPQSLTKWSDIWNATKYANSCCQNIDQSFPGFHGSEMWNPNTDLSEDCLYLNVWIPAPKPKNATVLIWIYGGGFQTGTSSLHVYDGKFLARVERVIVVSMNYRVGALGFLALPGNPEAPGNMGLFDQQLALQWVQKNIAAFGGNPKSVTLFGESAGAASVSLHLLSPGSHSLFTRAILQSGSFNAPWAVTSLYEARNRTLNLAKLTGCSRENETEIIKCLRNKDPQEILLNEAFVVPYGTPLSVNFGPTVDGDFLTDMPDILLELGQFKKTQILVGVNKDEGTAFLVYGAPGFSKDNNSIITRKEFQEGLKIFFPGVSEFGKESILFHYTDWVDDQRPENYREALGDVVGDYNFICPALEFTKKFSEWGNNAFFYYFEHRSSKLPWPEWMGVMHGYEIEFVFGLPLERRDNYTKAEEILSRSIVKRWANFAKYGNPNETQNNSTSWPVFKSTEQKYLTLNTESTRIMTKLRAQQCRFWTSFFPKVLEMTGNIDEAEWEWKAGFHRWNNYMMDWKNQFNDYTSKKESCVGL
T1 sequence (P22303 32-614): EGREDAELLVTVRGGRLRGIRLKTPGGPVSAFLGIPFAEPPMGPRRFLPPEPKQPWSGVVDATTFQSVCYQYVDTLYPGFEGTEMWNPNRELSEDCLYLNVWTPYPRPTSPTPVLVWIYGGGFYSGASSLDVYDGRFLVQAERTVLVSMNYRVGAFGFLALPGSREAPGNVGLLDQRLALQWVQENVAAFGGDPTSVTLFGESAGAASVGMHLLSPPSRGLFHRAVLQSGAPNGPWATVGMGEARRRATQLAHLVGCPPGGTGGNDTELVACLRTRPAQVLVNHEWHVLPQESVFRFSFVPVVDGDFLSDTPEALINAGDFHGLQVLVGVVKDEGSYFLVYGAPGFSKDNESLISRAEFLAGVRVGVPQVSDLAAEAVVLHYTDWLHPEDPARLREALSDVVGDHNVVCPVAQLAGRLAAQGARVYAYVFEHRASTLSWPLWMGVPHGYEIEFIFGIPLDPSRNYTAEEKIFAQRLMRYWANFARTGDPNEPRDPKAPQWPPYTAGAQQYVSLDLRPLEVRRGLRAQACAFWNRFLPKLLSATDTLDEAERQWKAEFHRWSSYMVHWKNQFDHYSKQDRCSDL
Sequence of PAS of Electrophorus electricus AChE (EeAChE) (O42275 24-633): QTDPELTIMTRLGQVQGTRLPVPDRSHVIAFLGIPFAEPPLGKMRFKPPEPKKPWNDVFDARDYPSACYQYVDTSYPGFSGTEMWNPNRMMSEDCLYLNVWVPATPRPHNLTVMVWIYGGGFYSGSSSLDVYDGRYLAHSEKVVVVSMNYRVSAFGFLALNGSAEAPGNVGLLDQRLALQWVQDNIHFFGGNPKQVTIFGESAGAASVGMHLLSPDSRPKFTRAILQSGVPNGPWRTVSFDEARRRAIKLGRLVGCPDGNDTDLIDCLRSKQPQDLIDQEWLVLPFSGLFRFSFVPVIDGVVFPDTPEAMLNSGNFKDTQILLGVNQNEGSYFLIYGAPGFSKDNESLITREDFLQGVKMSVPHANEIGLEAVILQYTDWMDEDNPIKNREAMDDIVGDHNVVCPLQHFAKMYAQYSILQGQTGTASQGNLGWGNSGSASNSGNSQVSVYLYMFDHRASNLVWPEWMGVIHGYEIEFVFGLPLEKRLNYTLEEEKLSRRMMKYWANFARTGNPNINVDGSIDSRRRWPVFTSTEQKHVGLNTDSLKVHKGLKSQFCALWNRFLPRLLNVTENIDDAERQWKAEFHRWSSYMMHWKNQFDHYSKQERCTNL

Structure (SMILES) | Papp [1] [×10⁻⁶ cm/s] | microsomal CLint at 1 h, 0.05 µM [3] [µL/min/mg] | half-life at 1 h, 0.05 µM [3] [min] | remaining at 1 h, 0.05 µM [3] [%] | solubility at 2 h [4] [µM] | IC50 [5] [nM] | IC50 [6] [nM] | IC50 [7, 13] [nM] | BBB permeation class [1] | IC50 [8] [nM] | microsomal CLint at 1 h, 0.05 µM ([9]; 37 °C) [µL/min/mg] | remaining at 1 h, 0.05 µM [9] [%] | microsomal CLint at 1 h ([10]; 37 °C) [µL/min/mg] | remaining at 1 h [10] [%] | toxicity to SH-SY5Y cells LD50 [11] [µM] | LD50 (SH-SY5Y) [11] | IC50 [12] [nM] | other results
CN1C(C(=O)Nc2ccccn2)=C(O)c2ccccc2S1(=O)=O [Piroxicam, reference compound] | 2.3 ± 0.1 |  |  |  |  |  |  |  |  |  |  |  |  |  |  |  |  | 
CC[N+](C)(CC)CCC[n+]1c(-c2ccccc2)c2cc(N)ccc2c2ccc(N)cc21 [propidium, propidium iodide] |  |  |  |  |  |  |  |  |  |  |  |  |  |  |  |  |  | Kd [2]: 700 nM
O=C(Nc1ccc(OC(F)(F)F)cc1)NC1CCN(C(=O)CCCNc2c3c(nc4cc(Cl)ccc24)CCCC3)CC1 [12b, 1-{1-{4-[(6-Chloro-1,2,3,4-tetrahydroacridin-9-yl)amino]butanoyl}piperidin-4-yl}-3-[4-(trifluoromethoxy)phenyl]urea] | 9.1 ± 0.1 | 78 | 9 | 1 | 13.7 (≈ 8.28 µg/mL) | 2.71 ± 0.06 | 4.01 ± 0.24 | 416 ± 35 | CNS+ (High permeation, CNS+: Pe > 5.2) | 1 | 69 | 2 | 19 | 34 | >100 | > 100 ?M | 15 | hAChE potency relative to 6-chlorotacrine [5]: 5 fold; half-life at 1 h, 0.05 µM [9, 14]: 10 min; half-life at 1 h [10, 15]: 36 min
CC1=C[C@H]2Cc3nc4cc(Cl)ccc4c(N)c3[C@@H](C1)C2 [(+)-3, (+)-huprine Y, reference compound] |  |  |  |  |  |  | 474 ± 22 |  |  | > 50000 |  |  |  |  |  |  | > 50000 | IC50 [7]: 170 ± 17 nM
CC1=C[C@@H]2Cc3nc4cc(Cl)ccc4c(NCCCCC(=O)N4CCC(NC(=O)Nc5ccc(OC(F)(F)F)cc5)CC4)c3[C@H](C1)C2 [(−)-15, (−)-(7S,11S)-1-{1-{5-[(3-Chloro-6,7,10,11-tetrahydro-9-methyl-7,11-methanocycloocta[b]quinolin-12-yl)amino]pentanoyl}piperidin-4-yl}-3-[4-(trifluoromethoxy)phenyl]urea] | 9.9 ± 0.3 | 172 | 4 | 0.4 | 5.6 (≈ 3.75 µg/mL) | 1.94 ± 0.67 | 2.61 ± 0.16 | 615 ± 34 | CNS+ (High permeation, CNS+: Pe > 5.2) | 0.4 | 54 | 4 | 144 | 1 | >100 | > 100 ?M | 34.3 | hAChE potency relative to its enantiomer ([5]; enantioselectivity): 850 fold; hsEH potency relative to its enantiomer ([8]; enantioselectivity): 8 fold; higher hsEH potency relative to TPPU [8]: 9 fold; half-life at 1 h, 0.05 µM [9, 14]: 13 min; half-life at 1 h [10, 15]: 5 min
CC1=C[C@@H]2Cc3nc4cc(Cl)ccc4c(N)c3[C@H](C1)C2 [(−)-3, (−)-huprine Y, reference compound] |  |  |  |  |  |  | 0.62 ± 0.03 |  |  | 41000 |  |  |  |  |  |  | > 50000 | IC50 [7]: 222 ± 17 nM
CC1=C[C@H]2Cc3nc4cc(Cl)ccc4c(NCCCCC(=O)N4CCC(NC(=O)Nc5ccc(OC(F)(F)F)cc5)CC4)c3[C@@H](C1)C2 [(+)-15, (+)-(7R,11R)-1-{1-{5-[(3-Chloro-6,7,10,11-tetrahydro-9-methyl-7,11-methanocycloocta[b]quinolin-12-yl)amino]pentanoyl}piperidin-4-yl}-3-[4-(trifluoromethoxy)phenyl]urea] |  |  |  |  |  | 1660 ± 450 | 102 ± 18 | 179 ± 26 |  | 3.1 |  |  |  |  |  |  | 14.5 | 
O=C(Nc1ccc(OC(F)(F)F)cc1)NC1CCN(C(=O)CCNc2c3c(nc4cc(Cl)ccc24)CCCC3)CC1 [12a, 1-{1-{3-[(6-Chloro-1,2,3,4-tetrahydroacridin-9-yl)amino]propanoyl}piperidin-4-yl}-3-[4-(trifluoromethoxy)phenyl]urea] | 9.2 ± 0.2 | 109 | 6 | 1 | 42.6 (≈ 25.1 µg/mL) | 14.5 ± 0.3 | 35.4 ± 2 | 947 ± 6 | CNS+ (High permeation, CNS+: Pe > 5.2) | 0.4 | 56 | 4 | 57 | 4 | 92.8 ± 52.3 | 92.8 ± 52.3 ?M | 12.1 | higher hsEH potency relative to TPPU [8]: 9 fold; half-life at 0.05 µM [9, 14]: 12 min; half-life [10, 15]: 12 min
Nc1c2c(nc3cc(Cl)ccc13)CCCC2 [compound 2, 6-chlorotacrine, reference compound] |  |  |  |  |  |  | 19.8 ± 0.7 |  |  | 49100 |  |  |  |  |  |  | > 50000 | 
